Measurements published in PubChem BioAssay (NCI).
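At the GI50, growth is halved. At the TGI there is no net growth.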

Legend:
Experiment in all cases: NCI tumour cell line growth inhibition, 384-well format
786-0 renal = tested on: 786-0 renal
A498 renal = tested on: A498 renal
A549 NSCLC = tested on: A549 NSCLC
ACHN renal = tested on: ACHN renal
BT-549 breast = tested on: BT-549 breast
CAKI-1 renal = tested on: CAKI-1 renal
CCRF-CEM leukemia = tested on: CCRF-CEM leukemia
COLO 205 colon = tested on: COLO 205 colon
DU-145 prostate = tested on: DU-145 prostate
EKVX NSCLC = tested on: EKVX NSCLC
HCC-2998 colon = tested on: HCC-2998 colon
HCT-116 colon = tested on: HCT-116 colon
HCT-15 colon = tested on: HCT-15 colon
HL-60(TB) leukemia = tested on: HL-60(TB) leukemia
HOP-62 NSCLC = tested on: HOP-62 NSCLC
HOP-92 NSCLC = tested on: HOP-92 NSCLC
HS 578T breast = tested on: HS 578T breast
HT29 colon = tested on: HT29 colon
IGROV1 ovarian = tested on: IGROV1 ovarian
K-562 leukemia = tested on: K-562 leukemia
KM12 colon = tested on: KM12 colon
LOX IMVI melanoma = tested on: LOX IMVI melanoma
M14 melanoma = tested on: M14 melanoma
MALME-3M melanoma = tested on: MALME-3M melanoma
MCF7 breast = tested on: MCF7 breast
MDA-MB-231 breast = tested on: MDA-MB-231 breast
MDA-MB-435 melanoma = tested on: MDA-MB-435 melanoma
MDA-MB-468 breast = tested on: MDA-MB-468 breast
MOLT-4 leukemia = tested on: MOLT-4 leukemia
NCI-H226 lung = tested on: NCI-H226 lung
NCI-H23 lung = tested on: NCI-H23 lung
NCI-H322M lung = tested on: NCI-H322M lung
NCI-H460 NSCLC = tested on: NCI-H460 NSCLC
NCI-H522 lung = tested on: NCI-H522 lung
NCI/ADR-RES ovarian = tested on: NCI/ADR-RES ovarian
OVCAR-3 ovarian = tested on: OVCAR-3 ovarian
OVCAR-4 ovarian = tested on: OVCAR-4 ovarian
OVCAR-5 ovarian = tested on: OVCAR-5 ovarian
OVCAR-8 ovarian = tested on: OVCAR-8 ovarian
PC-3 prostate = tested on: PC-3 prostate
RPMI-8226 leukemia = tested on: RPMI-8226 leukemia
RXF 393 renal = tested on: RXF 393 renal
SF-268 CNS = tested on: SF-268 CNS
SF-295 CNS = tested on: SF-295 CNS
SF-539 CNS = tested on: SF-539 CNS
SK-MEL-2 melanoma = tested on: SK-MEL-2 melanoma
SK-MEL-28 melanoma = tested on: SK-MEL-28 melanoma
SK-MEL-5 melanoma = tested on: SK-MEL-5 melanoma
SK-OV-3 ovarian = tested on: SK-OV-3 ovarian
SN12C renal = tested on: SN12C renal
SNB-19 CNS = tested on: SNB-19 CNS
SNB-75 CNS = tested on: SNB-75 CNS
SR leukemia = tested on: SR leukemia
SW-620 colon = tested on: SW-620 colon
T-47D breast = tested on: T-47D breast
TK-10 renal = tested on: TK-10 renal
U251 glioblastoma = tested on: U251 glioblastoma
UACC-257 melanoma = tested on: UACC-257 melanoma
UACC-62 melanoma = tested on: UACC-62 melanoma
UO-31 renal = tested on: UO-31 renal

## Cn1ncnc1[C@H]1c2n[nH]c(=O)c3cc(F)cc(c23)N[C@@H]1c1ccc(F)cc1
786-0 renal
  GI50: > 73.7 µM
  TGI: > 100 µM
A498 renal
  GI50: 31.1 µM
  TGI: > 100 µM
A549 NSCLC
  GI50: 7.83 µM
  TGI: > 100 µM
ACHN renal
  GI50: 17 µM
  TGI: > 100 µM
BT-549 breast
  GI50: 2.5 µM
  TGI: > 61.4 µM
CAKI-1 renal
  GI50: 21 µM
  TGI: > 100 µM
CCRF-CEM leukemia
  GI50: 0.256 µM
  TGI: 1.27 µM
COLO 205 colon
  GI50: 1.87 µM
  TGI: > 100 µM
DU-145 prostate
  GI50: 1.38 µM
  TGI: 30 µM
EKVX NSCLC
  GI50: > 78.7 µM
  TGI: > 100 µM
HCC-2998 colon
  GI50: 40.3 µM
  TGI: > 100 µM
HCT-116 colon
  GI50: 0.706 µM
  TGI: > 100 µM
HCT-15 colon
  GI50: > 43.7 µM
  TGI: > 100 µM
HL-60(TB) leukemia
  GI50: 0.625 µM
  TGI: 1.99 µM
HOP-62 NSCLC
  GI50: 0.228 µM
  TGI: 8.8 µM
HOP-92 NSCLC
  GI50: 46.9 µM
  TGI: > 100 µM
HS 578T breast
  GI50: 15.2 µM
  TGI: > 100 µM
HT29 colon
  GI50: > 100 µM
  TGI: > 100 µM
IGROV1 ovarian
  GI50: > 33 µM
  TGI: > 100 µM
K-562 leukemia
  GI50: 30.7 µM
  TGI: > 100 µM
KM12 colon
  GI50: > 100 µM
  TGI: > 100 µM
LOX IMVI melanoma
  GI50: 2.07 µM
  TGI: > 100 µM
M14 melanoma
  GI50: 2.25 µM
  TGI: > 100 µM
MALME-3M melanoma
  GI50: > 64.6 µM
  TGI: > 100 µM
MCF7 breast
  GI50: 1.72 µM
  TGI: > 100 µM
MDA-MB-231 breast
  GI50: > 100 µM
  TGI: > 100 µM
MDA-MB-435 melanoma
  GI50: > 100 µM
  TGI: > 100 µM
MDA-MB-468 breast
  GI50: 0.123 µM
  TGI: 1.13 µM
MOLT-4 leukemia
  GI50: 0.0183 µM
  TGI: 0.145 µM
NCI-H226 lung
  GI50: 22 µM
  TGI: > 100 µM
NCI-H23 lung
  GI50: 0.56 µM
  TGI: > 47.7 µM
NCI-H322M lung
  GI50: > 100 µM
  TGI: > 100 µM
NCI-H460 NSCLC
  GI50: 0.0169 µM
  TGI: > 66.3 µM
NCI-H522 lung
  GI50: 44.6 µM
  TGI: > 100 µM
NCI/ADR-RES ovarian
  GI50: 17.4 µM
  TGI: > 100 µM
OVCAR-3 ovarian
  GI50: > 79.7 µM
  TGI: > 100 µM
OVCAR-4 ovarian
  GI50: > 84.8 µM
  TGI: > 100 µM
OVCAR-5 ovarian
  GI50: > 100 µM
  TGI: > 100 µM
OVCAR-8 ovarian
  GI50: 0.804 µM
  TGI: > 100 µM
PC-3 prostate
  GI50: > 100 µM
  TGI: > 100 µM
RPMI-8226 leukemia
  GI50: 6.39 µM
  TGI: > 100 µM
RXF 393 renal
  GI50: 3.29 µM
  TGI: > 26.9 µM
SF-268 CNS
  GI50: 1.39 µM
SF-295 CNS
  GI50: 0.204 µM
  TGI: 2.56 µM
SF-539 CNS
  GI50: 1.02 µM
  TGI: > 100 µM
SK-MEL-2 melanoma
  GI50: > 100 µM
  TGI: > 100 µM
SK-MEL-28 melanoma
  GI50: > 90.3 µM
  TGI: > 100 µM
SK-MEL-5 melanoma
  GI50: 41.1 µM
  TGI: > 100 µM
SK-OV-3 ovarian
  GI50: 3.82 µM
  TGI: > 100 µM
SN12C renal
  GI50: 3.72 µM
  TGI: > 100 µM
SNB-19 CNS
  GI50: 10.9 µM
  TGI: > 100 µM
SNB-75 CNS
  GI50: 6.38 µM
  TGI: 29.5 µM
SR leukemia
  TGI: 0.0102 µM
SW-620 colon
  GI50: 3.66 µM
  TGI: > 100 µM
T-47D breast
  GI50: 10.9 µM
  TGI: > 100 µM
TK-10 renal
  GI50: > 100 µM
  TGI: > 100 µM
U251 glioblastoma
  GI50: 2.88 µM
  TGI: > 100 µM
UACC-257 melanoma
  GI50: > 100 µM
  TGI: > 100 µM
UACC-62 melanoma
  GI50: 14.7 µM
  TGI: > 100 µM
UO-31 renal
  GI50: 26.9 µM
  TGI: > 100 µM
